These results are taken from patent US12012415B2, “Compositions and methods for the diagnosis, treatment and prevention of neoplastic and neurological disorders” (AscentGene, Inc., priority 2018, dated 2024).

“Also recorded” adds a separate entry of the source.

The target in one test is PC4 protein (Homo sapiens, UniProt P53999). The test can be described thus: PC4-DNA binding interference. Particulars: for PC4 inhibition: high-throughput screen platform. Here is the method:
A number of small molecules were incubated with PC4 protein and DNA binding assessed.

Test [1] concerns Rat glioblastoma cell lines C6. Kind of test: Cell growth of glioblastoma cell line C6. In kind it is cell-based. Particulars: cell growth rate from number of live cells. Here is the method: (§1) Rat glioblastoma cell lines C6 (A) and human non-small cell lung cancer cell line H841 (B) were grown in the proper medium and treated with different concentration of drug candidate AG-1031 (P) and AG-1503 (#3). Cell growth rate was calculated based on the number of live cells as compared to concentration in M of selected small molecules of the invention (see FIGS. 6A and 6B).

Test [2] has as its system human non-small cell lung cancer cell line H841. Kind of test: Cell growth of NSCLC cell lines. In kind it is cell-based. Particulars: cell growth rate from number of live cells. Here is the method: as §1
Test [3] has as its system glioma (glioblastoma cell line C6). Kind of test: C6 glioma xenograft model, tumor growth, behaviour and memory. The test is classed as in vivo, rats. As to conditions: for ability of new object recognition: rat, in vivo; for recovery of memory loss and loss of other activities: xenograft model of C6 cell line.
Test [4] relates to A549 xenograft (NSCLC tumor). The test can be described thus: A549 xenograft mice, AG-1031 treatment after inoculation. The test is classed as in vivo. As to conditions: 20-40 μg/mice IP every other day, 28 days, after tumor formation. Here is the method:
Mice were treated with AG-1031 (20-40 μg/mice) every other day via IP injection after A549 inoculate to the SHO mice treatment and followed for up to 28 days.
Tumor volume was measured during treatment of NSCLC cells with AG-1031 over 28 days.

The subject of test [5] is A549 xenograft (NSCLC formation). The test can be described thus: A549 xenograft mice, AG-1031 pre-injection (vaccine). In kind it is in vivo. On the procedure:
AG-1031 was injected into mice two weeks before injection of tumor cell (see FIG. 9).
Tumor volume was measured for 35 days after administration of AG-1031 to xenograft mice.
IP inject with AG-1031 40 μg/mice, once a week (×2) before A549 cells inoculate to the SHO mice. Assessment of AG-1031 effect on tumor growth in A549 xenograft mice.

Consider “Coproporphyrin III tetramethyl ester [AG-1503]”, for which, on PC4 protein, the PC4 inhibition result was “strong PC4 inhibitor”. Moreover, the “inhibition of growth of glioma cell line C6” value in test [1] is reported as “inhibition of rat glioblastoma cell line C6; also recorded: specific inhibitory activity on growth of glioma cell line C6”. Further, in test [2], the “inhibition of growth of NSCLC cell lines” value is on record as “inhibition of human non-small cell lung cancer cell line H841; also recorded: not significant inhibitory activity on growth of NSCLC cell lines”. Moreover, in test [3], the “ability of new object recognition” value is recorded as “showed efficacy to improve ability of new object recognition”; the “recovery of memory loss and loss of other activities” value was “better activity for recovering memory loss and loss of other activities”. Also, the “open-field anxiety and activity” value in test [3] (rats with glioma) is “improvement of anxiety and activity”.
“9-methyl (I) and 13-methyl (II) trans-(+)-18-ethenyl-4,4a-dihydro-3,4-bis(methoxycarbonyl)4a,8,14,19-tetramethyl-23H, 25H-benzo[b]porphine-9,13-dipropanoate [AG-1031]”: the PC4 inhibition result on PC4 protein is recorded as “strong PC4 inhibitor”. Further, the “interference of PC4-DNA binding” value on PC4 protein (small molecules incubated with PC4 protein, in vitro) is recorded as “significant interference of PC4-DNA binding; also recorded: specifically inhibits PC4 activity by blocking its double stranded DNA binding ability”. The “inhibition of growth of glioma cell line C6” value in test [1] is on record as “inhibition of rat glioblastoma cell line C6”. For the same substance, the “inhibition of growth of NSCLC cell lines” value in test [2] is on record as “inhibition of human non-small cell lung cancer cell line H841; also recorded: inhibited non-small cell lung cancer (NSCLC) cell growth”. Besides, the “growth of NSCLC tumor” value in test [4] is “inhibits growth of NSCLC tumor cells; also recorded: inhibiting tumor growth”. Besides, the tumor volume in test [5] (AG-1031 injected two weeks before tumor cells, control 302.9 mm^3) was found to be 69.0 mm^3. Further, the tumor volumes result in test [5] (measured for 35 days after administration) is recorded as “substantially reduces tumor volumes”. Also, the “prevention of tumor formation” value in test [5] (pre-injection of AG-1031 before tumor cells) is on record as “prevents NSCLC formation in vivo; also recorded: effectively prevented tumor formation”. Moreover, in test [3], the “ability of new object recognition” value is on record as “showed efficacy to improve ability of new object recognition”; the “recovery of memory loss and loss of other activities” value was “recovery of memory loss and other activity loss”. In test [3] (xenograft model from C6 cell line), the glioma growth entry is “significantly inhibited glioma growth”.
